Assay results: patent US20060222647A1, “Methods and compositions for modulating the activity of PDE5” (priority 1993, published 2006)
Read-outs that look alike come from different tables or passages of the source.

What was measured:
cGB-PDE = cGB-PDE (Bos taurus, UniProt Q28156); experiment: Metal dependence of cGB-PDE PDE activity; assay type: biochemical
Description: The catalytic domains of mammalian PDEs and a Drosophila PDE contain two tandem conserved sequences (HX3 HX24 26 E) that are typical Zn^2+-binding motifs in Zn^2+ hydrolases such as thermolysin (Vallee and Auld, Biochem., 29: 5647-5659 (1990)). cGB-PDE binds Zn^2+ in the presence of large excesses of Mg^2+, Mn^2+, Fe^2+, Fe^3+, Ca^2+ or Cd^2+. In the absence of added metal, cGB-PDE has a PDE activity that is approximately 20% of the maximum activity that occurs in the presence of 40 mM Mg^2+, and this basal activity is inhibited by 1,10-phenanthroline or EDTA. […] PDE activity is stimulated by addition of Zn^2+ (0.02-1 μM) or Co^2+([…]), but not by Fe^2+, Fe^3+, Ca^2+, Cd^2+, or Cu^2+. Zn increases the basal PDE activity up to 70% of the maximum stimulation produced by 40 mM Mg^2+. The stimulatory effect of Zn^2+ in these assays may be compromised by an inhibitory effect that is caused by Zn^2+ concentrations>1 μM. The Zn^2+-supported PDE activity and Zn^2+ binding by cGB-PDE occur at similar concentrations of Zn^2+ cGB-PDE thus appears to be a Zn^2+ hydrolase and Zn^2+ appears to play a critical role in the activity of the enzyme. See, Colbran et al., The FASEB J., 8: Abstract 2148 (Mar. 15, 1994).

bovine cGB-PDE = target: T1, bovine cGB-PDE (Bos taurus, UniProt Q28156); experiment: [3H]cGMP-binding assay of extracts of COS-7 cells transfected with pCDM8-cGB-PDE
T1 construct: which contains the entire coding region of cGB-8; made in house; host or cells: COS-7 cells, whole-cell extract
Description: Cell extracts were assayed for [^3H]cGMP-binding activity in the absence or presence of 0.2 mM 3-isobutyl-1-methylaxanthine (IBMX) (Sigma), a competitive inhibitor of cGMP hydrolysis. The cGMP binding assay, modified from the assay described in Thomas I, supra, was conducted in a total volume of 80 μl. […] Assays were carried out in the absence and presence of 0.2 mM IBMX. The reaction was initiated by the addition of the cell extract, and was incubated for 60 minutes at 0° C. Filtration of the reaction mixtures was carried out as described in Thomas I, supra. Blanks were determined by parallel incubations with homogenization buffer replacing cell extracts, or with a 100-fold excess of unlabelled cGMP.
Results of the assay are set out in FIG. 7. […] The ability of IBMX to stimulate cGMP binding 2-5 fold is a distinctive property of the cGMP-binding phosphodisterases.
Results are presented in FIG. 8 wherein cGMP binding in the absence of unlabelled competitor was taken as 100% and each data point represents the average of three separate determinations.

recombinant mouse PDE5 [1] = target: T2, recombinant mouse PDE5 (Mus musculus, UniProt Q8CG03); experiment: PDE5 activity assay of recombinant mouse PDE5 expressed in HEK 293 cells; assay type: biochemical; conditions: assayed at 10 μM cGMP
T2 construct: made in house; host or cells: HEK 293 cells, transient transfection; lysate supernatant or Mono Q fractions

[2] = target: native cGB-PDE and WT cGB-PDE (Bos taurus, UniProt Q28156); experiment: cGMP-binding kinetics of native and recombinant wild type cGB-PDE; set-up: species or system bovine
recombinant PDE5 = target: T3, recombinant PDE5 (Mus musculus, UniProt Q8CG03); experiment: cGMP saturation binding assay (Millipore filter binding); conditions: 0.01-20 μM cGMP, IBMX present, 30 min on ice
T3 construct: made in house; host or cells: HEK 293 cells, transient transfection; lysate supernatant or Mono Q fractions
Description: Binding studies were conducted by the Millipore filter binding assay in a total volume of 40 μl containing binding buffer (50 mM Tris-HCl, pH 7.5, 2.0 mM EDTA, 1 mM DTT, 100 mM NaCl) and 0.1 mM IBMX in the presence of 0.01 -20 μM ^3H-cGMP. In some experiments an additional 30 min preincubation of recombinant PDE5 with monoclonal antibodies (mAb/P3B2 or mAb/P4D8) was performed before addition of cGMP. Following a 30 min incubation on ice, 1 ml of ice cold binding buffer was added to the assays. The samples were immediately filtered through a Millipore HAWP nitrocellulose membrane (pore size 0.45 μM, 24 mm diameter) and rinsed three times with ice cold binding buffer (10 ml each). The filters were dissolved in 5 ml of Filter Count™ (Packard Instrument) and counted in a liquid scintillation counter.
The cGMP saturation binding assay was employed (FIG. 14) using recombinant PDE5 without (filled squares) or with preincubation with monoclonal antibodies mAb/P3B2 (filled circles) or mAb/P4D4 (filled triangles) for 30 min on ice, to determine the Kd for cGMP binding. The binding assays were performed with 0.01-20 μM cGMP in the presence of […] for 30 min on ice. The specific binding (cpm) is calculated by subtraction of nonspecific binding from total binding. […] A linear scatchard plot of the cGMP binding data indicated one class of cGMP-binding sites. […]

D289A mutant cGB-PDE = D289A mutant cGB-PDE (Bos taurus, UniProt Q28156, D289A); experiment: cGMP-binding kinetics of D289A mutant cGB-PDE
Description: This curvilinearity may have been due to the presence of distinct high affinity (slow) and low affinity (fast) sites of cGMP binding.

D478A mutant cGB-PDE = D478A mutant cGB-PDE (Bos taurus, UniProt Q28156, D478A); experiment: cGMP-binding kinetics of D478A mutant cGB-PDE; set-up: species or system bovine
recombinant mouse PDE5 [3] = target: T2, recombinant mouse PDE5; experiment: PDE5 activity assay of recombinant mouse PDE5 expressed in HEK 293 cells; assay type: biochemical; conditions: for IC50: IC50 for sildenafil inhibition
Description: Phosphodiesterase assays were carried out according to established procedures. All assays were performed for 5 min (unless otherwise indicated) at 30° C. using different concentrations of cGMP (0.1-10 μM) as substrates. Protein concentrations were determined by the Coomassie Plus protein assay (Pierce).
Recombinant mouse PDE5 was expressed in HEK 293 cells. […] The cells were lysed in a small volume of homogenization buffer in order to obtain a concentrated extract, and then the cell extract was preincubated with 50 μM cGMP on ice without PDE inhibitors (filled triangles, FIGS. 11A and 11B) or with 0.2 μM sildenafil (filled circles, FIG. 11B). At different time points aliquots were diluted 1/400-1/500, and different amounts of diluted extract (additional dilution 1/5-1/10) were used for PDE5 activity assayed at 0.1 μM cGMP for 5 min at 30° C. An additional portion of 50 μM cGMP was added to the preincubation mixture at 60 min after the start of preincubation as indicated by an arrow (open triangles, FIG. 11A). PDE5 activity was expressed as pmol/min/μg of protein. […] The percent of 50 μM cGMP hydrolysis at different time points was measured using the PDE5 activity assay.
To investigate this further, PDE5 was preincubated of with 50 μM cGMP on ice and an aliquot was diluted and assayed with either 0.1 μM, 1.0 μM or […] cGMP for 5 min at 30° C. Data are expressed as fold activation of PDE5 activity after preincubation with 50 μM cGMP (FIG. 12A).
PDE5 activity was measured at 0.1 μM (FIG. 16A), 1.0 μM (FIG. 16B) or 10 μM cGMP (FIG. 16C). It was analyzed without any treatments (filled squares), or after preincubation with 50 μM cGMP on ice (filled triangles), or after preincubation with mAb/P3B2 for 30 min on ice (filled circles). Treatment of PDE5 with mAb/P3B2 for 30 min on ice preceded preincubation with 50 μM cGMP (open circles). PDE5 activity was expressed as […].
Kinetic and inhibitory characteristics of activated PDE5. […] FIG. 18A depicts a Lineweaver-Burk double-reciprocal plot (0.1-10 μM cGMP) of activated (after preincubation with cGMP on ice) (filled triangles) PDE5 and mAb/P3B2 treated PDE5 (filled circles). PDE5 activity was expressed as pmol/min/μg of protein. […] PDE5 activities, assayed at each substrate concentration without sildenafil, were expressed as 100%. Km, Vmax and IC50 values were calculated using GraphPad Prism 2.0 C (GraphPad Software, San Diego, Calif.).

[4] = target: expressed bovine cGB-PDE cDNA protein product (Bos taurus, UniProt Q28156); experiment: cGMP phosphodiesterase activity of extracts of COS cells transfected with bovine cGB-PDE, in presence of PDE inhibitors; assay type: biochemical
Description: The reaction mixture was incubated for 10 minutes at 30° C., and then stopped by boiling. Next, 10 μl of 10 mg/ml Crotalus atrox venom (Sigma) was added followed by a 10 minute incubation at 30° C.

[5] = activated PDE5 (preincubated with 50 μM cGMP)

SMILES: c1cnc2c(c1)ccc1cccnc12 [1,10-phenanthroline]
- effect on basal PDE activity in absence of added metal (cGB-PDE): inhibited

SMILES: O=C(O)CN(CCN(CC(=O)O)CC(=O)O)CC(=O)O [EDTA]
- effect on basal PDE activity in absence of added metal (cGB-PDE): inhibited

SMILES: Nc1nc2c(ncn2[C@@H]2O[C@@H]3COP(=O)(O)O[C@H]3[C@H]2O)c(=O)[nH]1 [cGMP]
- excess concentration of unlabelled competitor required to inhibit [3H]cGMP binding by 50% (bovine cGB-PDE; 2.5 μM [3H]cGMP): Less than 10 fold higher concentrations
- PDE5 activation after preincubation with 50 μM cGMP (recombinant mouse PDE5 [1]): not detectable
- Kd [2]: ~2000 nM
- Kd (recombinant PDE5): 120 nM
- t1/2 of single rate of cGMP-association (D289A mutant cGB-PDE): 0.5 h
- Kd (D289A mutant cGB-PDE; read-out: Kd of cGMP binding): > 20000 nM
- Kd (D478A mutant cGB-PDE): ~500 nM
- t1/2 of single cGMP-dissociation rate (D478A mutant cGB-PDE): 2.8 h
- Km (recombinant mouse PDE5 [3]; [5]): 0.96 µM
- Vmax (recombinant mouse PDE5 [3]; [5]): 27 pmol/min/μg of protein
- PDE5 activation after preincubation with 50 μM cGMP (recombinant mouse PDE5 [3]; assayed at 0.1 μM cGMP, 5 min 30° C., 15 min preincubation on ice): 10 times
- PDE5 activation after preincubation with 50 μM cGMP (recombinant mouse PDE5 [3]; assayed at 1.0 μM cGMP): 2-3 times
- Vmax (recombinant mouse PDE5 [3]; non-activated PDE5 (mAb/P3B2 treated)): 8.9 pmol/min/μg of protein
- Km (recombinant mouse PDE5 [3]; non-activated PDE5 (mAb/P3B2 treated), read-out: Km for cGMP): 4.6 µM

SMILES: CCCc1nn(C)c2c(=O)[nH]c(-c3cc(S(=O)(=O)N4CCN(C)CC4)ccc3OCC)nc12 [sildenafil]
- time PDE5 activation was sustained during preincubation with 50 μM cGMP (recombinant mouse PDE5 [3]; 0.2 μM sildenafil in preincubation mixture): at least 90 min
- IC50 (recombinant mouse PDE5 [3]; activated PDE5, assayed at 0.1 μM cGMP): 0.6 nM
- IC50 (recombinant mouse PDE5 [3]; activated PDE5, assayed at 1.0 μM cGMP): 1.2 nM
- IC50 (recombinant mouse PDE5 [3]; control PDE5, assayed at 0.1 μM cGMP): 2.1 nM
- IC50 (recombinant mouse PDE5 [3]; control PDE5, assayed at 1.0 μM cGMP): 4.9 nM

SMILES: COc1ccc(C2CNC(=O)C2)cc1OC1CCCC1 (stereo not drawn) [rolipram]
- IC50 [4]: > 300000 nM

SMILES: CCCOc1ccccc1-c1nc2nn[nH]c2c(=O)[nH]1
- IC50 [4]: 2000 nM

SMILES: CC(C)Cn1c(=O)n(C)c(=O)c2[nH]cnc21 [IBMX, 3-isobutyl-1-methylaxanthine]
- stimulation of cGMP binding (bovine cGB-PDE; 0.2 mM IBMX, 1 μM [3H]cGMP): approximately 1.8 fold
